# Molecular target: T1, GRP receptor (Rattus norvegicus, UniProt P52500)
# T1 construct: endogenous in cells; host or cells: rat AR42J pancreatic acinar cells (membrane preparation)
# Test: Assay on binding to GRP receptor ([125I-Tyr4]bombesin displacement, AR42J cell membranes)
# Settings: for IC50: rat AR42J cell membranes, [125I-Tyr4]bombesin, 30 min, 4° C., read-out: IC50, affinity binding for the GRP receptors; for increase in the affinity for the GRP receptor compared with litorin or Leu-litorin: ratio of IC50 values versus litorin / Leu-litorin
# Procedure: Rat AR42J pancreatic acinar cells were cultured in Dulbecco's modified Eagle's medium without antibiotics and supplemented with 10% (vol/vol) fetal calf serum. The incubation atmosphere consisted of 10% C)2 -90% humidified air at 37° C.
# Membranes for the bombesin receptor binding assay were obtained by homogenizing AR42J cells (Polytron, setting 6, 15 sec) in ice-cold 50 mM Tris-HCl (Buffer A) and centrifuging twice at 39,000× g (10 min), with an intermediate resuspension in fresh buffer. The final pellets were resuspended in 50 mM Tris-HCl, containing 0.1 mg/ml bacitracin, and 0.1% BSA (Buffer B), and held on ice for the receptor binding assay.
# For assay, aliquots (0.4 ml) were incubated with 0.05 ml [^125 I-Tyr^4 ] bombesin (~2200 Ci/mmol, New England Nuclear) and Buffer B, with and without 0.05 ml of unlabeled competing analogs. After a 30 min incubation (4° C.), the bound [^125 I-Tyr^4 ] bombesin was separated from the free by rapid filtration through GF/B filters which had been previously soaked in 0.1% polyethyleneimine. The filters were then washed three times with 5 ml aliquots of ice-cold Buffer A. Specific binding was defined as the total [^125 I-Tyr^4 ] bombesin bound minus that bound in the presence of 1 μM unlabeled bombesin.
# T1 sequence (P52500 whole entry): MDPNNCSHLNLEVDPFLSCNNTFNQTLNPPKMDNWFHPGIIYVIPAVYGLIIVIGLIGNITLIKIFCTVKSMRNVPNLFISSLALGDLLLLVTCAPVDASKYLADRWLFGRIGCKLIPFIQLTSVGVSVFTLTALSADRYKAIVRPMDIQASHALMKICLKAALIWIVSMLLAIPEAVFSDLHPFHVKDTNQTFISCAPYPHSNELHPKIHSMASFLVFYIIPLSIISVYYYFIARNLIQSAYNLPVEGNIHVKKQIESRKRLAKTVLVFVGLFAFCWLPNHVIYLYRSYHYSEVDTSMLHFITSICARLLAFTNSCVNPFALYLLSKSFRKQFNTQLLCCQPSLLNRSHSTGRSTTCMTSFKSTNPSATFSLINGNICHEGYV
Compound,IC50,increase in the affinity for the GRP receptor compared with litorin or Leu-litorin
"CCCC[C@H](NC(=O)[C@H](Cc1ccccc1)NC(=O)[C@H](Cc1c[nH]cn1)NC(=O)CNC(=O)[C@@H](NC(=O)[C@H](C)NC(=O)[C@H](Cc1c[nH]c2ccccc12)NC(=O)[C@H](CCC(N)=O)NC(=O)[C@H](N)Cc1ccc(O)cc1)C(C)C)C(N)=O [BIM-26270, H--D-Tyr--Gln--Trp--Ala--Val--Gly--His--Phe--Nle--NH2]",0.1 nM,24 to 230 times
"CSCC[C@H](NC(=O)[C@H](Cc1ccccc1)NC(=O)[C@H](Cc1c[nH]cn1)NC(=O)CNC(=O)[C@@H](NC(=O)[C@H](C)NC(=O)[C@H](Cc1c[nH]c2ccccc12)NC(=O)[C@H](CCC(N)=O)NC(=O)[C@H](N)Cc1ccc(O)cc1)C(C)C)C(N)=O [BIM-26271, H--D-Tyr--Gln--Trp--Ala--Val--Gly--His--Phe--Met--NH2]",0.5 nM,5- to 15 times
"CSCC[C@H](NC(=O)[C@H](CC(C)C)NC(=O)[C@H](Cc1c[nH]cn1)NC(=O)CNC(=O)[C@@H](NC(=O)[C@H](C)NC(=O)[C@H](Cc1c[nH]c2ccccc12)NC(=O)[C@H](CCC(N)=O)NC(=O)[C@H](N)Cc1ccc(O)cc1)C(C)C)C(N)=O [BIM-26274, H--D-Tyr--Gln--Trp--Ala--Val--Gly--His--Leu--Met--NH2]",0.3 nM,
"CC(C)C[C@H](NC(=O)[C@H](CC(C)C)NC(=O)[C@H](Cc1c[nH]cn1)NC(=O)CNC(=O)[C@@H](NC(=O)[C@H](C)NC(=O)[C@H](Cc1c[nH]c2ccccc12)NC(=O)[C@H](CCC(N)=O)NC(=O)[C@H](N)Cc1ccc(O)cc1)C(C)C)C(N)=O [BIM-26278, H--D-Tyr--Gln--Trp--Ala--Val--Gly--His--Leu--Leu--NH2]",1.5 nM,5- to 15 times
"CCCC[C@H](NC(=O)[C@H](CC(C)C)NC(=O)[C@H](Cc1c[nH]cn1)NC(=O)CNC(=O)[C@@H](NC(=O)[C@H](C)NC(=O)[C@H](Cc1c[nH]c2ccccc12)NC(=O)[C@H](CCC(N)=O)NC(=O)[C@H](N)Cc1ccc(O)cc1)C(C)C)C(N)=O [BIM-26279, H--D-Tyr--Gln--Trp--Ala--Val--Gly--His--Leu--Nle--NH2]",1.7 nM,
"CC(C)C[C@H](NC(=O)[C@H](Cc1ccccc1)NC(=O)[C@H](Cc1c[nH]cn1)NC(=O)CNC(=O)[C@@H](NC(=O)[C@H](C)NC(=O)[C@H](Cc1c[nH]c2ccccc12)NC(=O)[C@H](CCC(N)=O)NC(=O)[C@H](N)Cc1ccc(O)cc1)C(C)C)C(N)=O [BIM-26288, H--D-Tyr--Gln--Trp--Ala--Val--Gly--His--Phe--Leu--NH2]",0.7 nM,

# Source: patent US5767236A, “Linear therapeutic peptides” (Biomeasure, Inc., priority 1995, dated 1998)
